# Results published in patent US20210029993A1, “SPATIAL INHIBITORS, DETERRENTS AND REPELLENTS FOR MOSQUITOES AND MIDGES” (BEDOUKIAN RESEARCH, INC., priority 2005, published 2021).
# Experiments:
# Format in all cases: in vivo
# [1] = tested on: female mosquitoes (Aedes aegypti); assay: Mosquitoes feeding test (Plexiglas module, treated membrane over dyed sucrose/ATP solution); conditions: for Feeding Relative To Control: control = 1.00, lower = more repellent; for contact mosquito repellent activity (feeding tests, FIGS. 1 and 3), in words: feeding relative to control
# Description: (§1) The test was conducted at 0900-2100 hours in a walk-in incubator (26° C., 63-80% RH) illuminated by fluorescent lights. Mosquitoes were tested in a two-piece Plexiglas module designed to assess their response to feeding deterrents. The bottom piece of the module was 40×7×4-cm hollow platform supporting six circular wells (diameter=3.8 cm, depth=6 mm). Water (40° C.) flowed through the central cavity of the platform at a rate of 215 ml/min. The top piece of the module consisted of six 4.5×4.0×5.0 cm chambers, the floors of which were fitted with a sliding door positioned over a circular opening 3.5 cm in diameter. Mosquitoes were introduced through an aperture 1 cm in diameter on the front wall of the chambers. For each test, five female mosquitoes (Aedes aegypti) were aspirated into each of five chambers of the top module piece and the apertures were plugged with corks wrapped in plastic film. The wells on the bottom piece of the module were filled with 7 ml of 10% sucrose solution containing ATP (2.9 mg/ml). To each well, 75 μl of green dye (McCormick Food, Hunt Valley, Md.) were added so that those mosquitoes imbibing the sugar solution could be identified when crushed at the end of the tests. Each membrane received 50 ul of acetone or experimental compound solution, applied to 9.6 cm^2 circular area on 0.1 mm-thick membranes made of nylon mesh in a silicone matrix. The membranes were then placed over each well in contact with the sugar solution.
# (§2) The circular openings on the floor of each chamber of the top piece of the module were aligned with each membrane-covered well of the bottom piece. The sliding floors of the chambers were then opened allowing mosquitoes access to the membranes. The number of mosquitoes landing on the membranes, and those flying within the apparatus, were recorded each minute for five minutes. After five minutes, any mosquitoes remaining on the membranes were removed with a metal wire, and the door of the floor of each chamber was closed. The top piece of the module was then placed into a freezer for 20 minutes. In the test designed to assess feeding, mosquitoes were removed from the frozen module, crushed on white paper towels, and examined for the presence of green dye to indicate that feeding had occurred. The proportions of mosquitoes feeding per trial were analyzed using a standard generalized linear model with a logit link. Landing and flying scores are repeated measures; five reading were obtained for groups of five mosquitoes. Thus, to maintain independence among the data, the five readings were summed, and then the sums divided by 25 (the maximum score in each category) to create proportions of mosquitoes landing and flying. The proportions were then transferred using the standard variance stabilizing transformation for proportions (sin^−1 √y, where y is the proportion), and analyzed using ANOVA (Analysis of Variables)
# In Table 1, weight percent (wt %) refers to the weight of the deterring/repelling/inhibiting compound, or combination of compounds, in the composition used in the tests. […] The weight ratio of the compounds in the combination of compounds is given in parentheses in the “Compound(s)” column of Table 1.
# mosquitoes = assay: Spatial inhibition of mosquitoes, outdoor Mosquito Magnet Liberty Plus trap catch; conditions: for Percent Caught Relative To Control: control trap = 100% catch, lower = more inhibition; for percent mosquitoes caught relative to the control (relative catch): two grams of test compound on absorbent material in CO2 and r-octenol stream of trap, 2-5 days, FIG. 5
# Description: Two grams of test compound was absorbed onto pieces of absorbent material. These pieces of absorbent material (fragrance release material from Rhopore Inc.) containing absorbed test compound were then placed in a stream of CO2 and r-octenol being released from an American Biophysics Mosquito Magnet Liberty Plus mosquito trap designed to attract mosquitoes. The test were rotated over a period of 2-5 days in such a manner that both control (trap without test compound) and test compound were tested an equal number of times in each trap employed. The number of mosquitoes caught in the traps with test compounds was compared to the number of mosquitoes caught in the trap with no test compound material present. […] Thus, a lowered percentage is indicative of the increasing ability of the test compounds to inhibit the ability of the mosquitoes sense the target. […] In Table 3, weight percent (wt %) refers to the weight of the deterring/repelling/inhibiting compound, or combination of compounds, in the composition used in the tests. In the “Percent Caught Relative to Control” column in Table 3, a lower percentage is indicative of the increasing ability of the test compounds to inhibit the ability of the mosquitoes sense the target. The weight ratio of the compounds in the combination of compounds is given in parentheses in the “Compound(s)” column of Table 3.
# [2] = tested on: female mosquitoes (Aedes aegypti); assay: Mosquitoes flying test (Plexiglas module, mosquitoes flying within the apparatus); conditions: for Flying Relative To Control: control = 1, higher = more inhibitor activity; for spatial inhibitor activity for mosquitoes (flying tests, FIGS. 2 and 4), in words: flying relative to control
# Description: as §1, §2
# In Table 2, weight percent (wt %) refers to the weight of the deterring/repelling/inhibiting compound, or combination of compounds, in the composition used in the tests. […] The weight ratio of the compounds in the combination of compounds is given in parentheses in the “Compound(s)” column of Table 2.
# [3] = 92.5 wt % compound(s) in composition
# [4] = 90 wt % compound(s) in composition
# [5] = 77.5 wt % compound(s) in composition
# [6] = 80 wt % compound(s) in composition
# [7] = 82.5 wt % compound(s) in composition
# [8] = 87.5 wt % compound(s) in composition
# [9] = 95 wt % compound(s) in composition
# [10] = 85 wt % compound(s) in composition
molecule,measurement,setting,value
CC(C)=CCCC(C)CC=O (stereo not shown) [Citronellal],Feeding Relative To Control,[1]; [3],0.62
same,"contact mosquito repellent activity (feeding tests, FIGS. 1 and 3), in words",[1],especially effective as contact mosquito repellents
same,Percent Caught Relative To Control,mosquitoes; [3],11%
same,Flying Relative To Control,[2]; [3],1.9
same,"spatial inhibitor activity for mosquitoes (flying tests, FIGS. 2 and 4), in words",[2],particularly effective as spatial inhibitors for mosquitoes
CC1=CCC(O)(C(C)C)CC1 (stereo not shown) [Terpinen-4-ol],Feeding Relative To Control,[1]; [4],0.74
same,Percent Caught Relative To Control,mosquitoes; [4],20%
same,percent mosquitoes caught relative to the control (relative catch),mosquitoes,about 38%
same,Flying Relative To Control,[2]; [4],1.7
same,"spatial inhibitor activity for mosquitoes (flying tests, FIGS. 2 and 4), in words",[2],particularly effective as spatial inhibitors for mosquitoes
C=C(C)[C@H]1CC=C(C)C(=O)C1 [d-Carvone],Feeding Relative To Control,[1]; [5],0.64
same,"contact mosquito repellent activity (feeding tests, FIGS. 1 and 3), in words",[1],especially effective as contact mosquito repellents
same,Percent Caught Relative To Control,mosquitoes; [5],12%
same,Flying Relative To Control,[2]; [5],1.95
same,"spatial inhibitor activity for mosquitoes (flying tests, FIGS. 2 and 4), in words",[2],particularly effective as spatial inhibitors for mosquitoes
C=C(C)[C@@H]1CC=C(C)[C@@H](O)C1 (relative stereo) [trans-Carveol],Feeding Relative To Control,[1]; [5],0.64
same,Percent Caught Relative To Control,mosquitoes; [5],22%
same,Flying Relative To Control,[2]; [5],1.55
"C=C[C@@](C)(O)CCC=C(C)C [d-Linalool, reference compound]",Feeding Relative To Control,[1]; [6],0.32
same,Percent Caught Relative To Control,mosquitoes; [6],6%
same,Flying Relative To Control,[2]; [6],1.25
l-Carvone,Feeding Relative To Control,[1]; [7],0.62
same,"contact mosquito repellent activity (feeding tests, FIGS. 1 and 3), in words",[1],especially effective as contact mosquito repellents
same,Percent Caught Relative To Control,mosquitoes; [7],10%
same,Flying Relative To Control,[2]; [7],1.75
same,"spatial inhibitor activity for mosquitoes (flying tests, FIGS. 2 and 4), in words",[2],particularly effective as spatial inhibitors for mosquitoes
CC(C)=CCCC(C)CCO (stereo not shown) [Citronellol],Feeding Relative To Control,[1]; [8],0.62
same,Percent Caught Relative To Control,mosquitoes; [8],12%
same,Flying Relative To Control,[2]; [8],1.55
same,"spatial inhibitor activity for mosquitoes (flying tests, FIGS. 2 and 4), in words",[2],particularly effective as spatial inhibitors for mosquitoes
CC(C)[C@@H]1CC[C@@H](C)C(=O)C1 [Tetrahydrocarvone],Feeding Relative To Control,[1]; [9],0.70
same,"contact mosquito repellent activity (feeding tests, FIGS. 1 and 3), in words",[1],especially effective as contact mosquito repellents
same,Percent Caught Relative To Control,mosquitoes; [9],25%
same,percent mosquitoes caught relative to the control (relative catch),mosquitoes,about 52%
same,Flying Relative To Control,[2]; [9],1.65
CC1=CCC(C(C)(C)O)CC1 (stereo not drawn) [α-terpineol],Feeding Relative To Control,[1]; [4],0.80
same,"contact mosquito repellent activity (feeding tests, FIGS. 1 and 3), in words",[1],especially effective as contact mosquito repellents
same,Percent Caught Relative To Control,mosquitoes; [4],18%
same,Flying Relative To Control,[2]; [4],1.15
same,"spatial inhibitor activity for mosquitoes (flying tests, FIGS. 2 and 4), in words",[2],particularly effective as spatial inhibitors for mosquitoes
Cc1ccc(C(C)(C)O)cc1,Feeding Relative To Control,[1]; [6],0.72
same,"contact mosquito repellent activity (feeding tests, FIGS. 1 and 3), in words",[1],especially effective as contact mosquito repellents
same,Percent Caught Relative To Control,mosquitoes; [6],26%
same,percent mosquitoes caught relative to the control (relative catch),mosquitoes,about 34%
same,Flying Relative To Control,[2]; [6],1.0
same,"spatial inhibitor activity for mosquitoes (flying tests, FIGS. 2 and 4), in words",[2],particularly effective as spatial inhibitors for mosquitoes
C=CC(C)(CCC=C(C)C)OC(C)=O (stereo not shown) [Linaloyl acetate],Feeding Relative To Control,[1]; [9],0.74
same,"contact mosquito repellent activity (feeding tests, FIGS. 1 and 3), in words",[1],especially effective as contact mosquito repellents
same,Percent Caught Relative To Control,mosquitoes; [9],15%
same,Flying Relative To Control,[2]; [9],1.3
same,"spatial inhibitor activity for mosquitoes (flying tests, FIGS. 2 and 4), in words",[2],particularly effective as spatial inhibitors for mosquitoes
C=C(C)[C@@H]1CC=C(C)[C@H](O)C1 (relative stereo) [cis-Carveol],Feeding Relative To Control,[1]; [10],0.66
same,Percent Caught Relative To Control,mosquitoes; [10],23%
same,Flying Relative To Control,[2]; [10],1.35
"C=C(C)C1CCC2(C)OC2C1 (single isomer, unassigned; (-)) [(−) Limonene oxide]",Feeding Relative To Control,[1]; [3],0.76
same,Percent Caught Relative To Control,mosquitoes; [3],17%
same,Flying Relative To Control,[2]; [3],1.1
CC(=O)OC/C=C(/C)CCC=C(C)C [Neryl acetate],Feeding Relative To Control,[1]; [5],0.76
same,"contact mosquito repellent activity (feeding tests, FIGS. 1 and 3), in words",[1],especially effective as contact mosquito repellents
same,Percent Caught Relative To Control,mosquitoes; [5],22%
same,Flying Relative To Control,[2]; [5],2.0
same,"spatial inhibitor activity for mosquitoes (flying tests, FIGS. 2 and 4), in words",[2],particularly effective as spatial inhibitors for mosquitoes
(+) Limonene oxide,Feeding Relative To Control,[1]; [8],0.78
same,Percent Caught Relative To Control,mosquitoes; [8],18%
same,Flying Relative To Control,[2]; [8],0.90
CC(=O)OC/C=C(\C)CCC=C(C)C [Geranyl acetate],Feeding Relative To Control,[1]; [10],0.68
same,"contact mosquito repellent activity (feeding tests, FIGS. 1 and 3), in words",[1],especially effective as contact mosquito repellents
same,Percent Caught Relative To Control,mosquitoes; [10],30%
same,Flying Relative To Control,[2]; [10],1.75
same,"spatial inhibitor activity for mosquitoes (flying tests, FIGS. 2 and 4), in words",[2],particularly effective as spatial inhibitors for mosquitoes
CC(=O)OCCC(C)CCC=C(C)C (stereo not shown) [Citronellyl acetate],Feeding Relative To Control,[1]; [6],0.65
same,Percent Caught Relative To Control,mosquitoes; [6],26%
same,Flying Relative To Control,[2]; [6],1.5
same,"spatial inhibitor activity for mosquitoes (flying tests, FIGS. 2 and 4), in words",[2],particularly effective as spatial inhibitors for mosquitoes
CC(C)=CCCC(C)=CC=O [Citral],Feeding Relative To Control,[1]; [7],0.60
same,"contact mosquito repellent activity (feeding tests, FIGS. 1 and 3), in words",[1],especially effective as contact mosquito repellents
same,Percent Caught Relative To Control,mosquitoes; [7],10%
same,Flying Relative To Control,[2]; [7],2.0
same,"spatial inhibitor activity for mosquitoes (flying tests, FIGS. 2 and 4), in words",[2],particularly effective as spatial inhibitors for mosquitoes
